Reference: patent US20090181931A1, “ANTIVIRAL ACTIVITY OF CIDOFOVIR AGAINST ONCOLYTIC VIRUSES” (priority 2008, published 2009)
Several values for one entry are separate records, joined by “and”; a condition that tells them apart may be missing. Equal entries are not always repeated.

Legend:
[1] = XTT cell viability assay, CDV alone, H1299 cells; type: cell-based; details: human; H1299 cells, XTT; read-out: CC50, CDV concentration that reduce the relative cell viability to 50%
Protocol: (§1) Cells frozen in liquid nitrogen were thawed in water bath at 37° C., seeded at T25 flask, and cultured at 70-90% sub-confluent monolayer. Cells were detached with trypsin, and prepared suspension at a concentration of 1.0×10^4 cells/ml.
(§2) Cells were seeded in 96 well-plate (100 μL/well, 1000 cells/well), then cultured with 5% CO2 at 37° C.
(§3) Viruses were diluted at MOI of 1 (OBP-301, OBP-202) in H1299 and 5 in A549 (PFU/cell). Medium in each well was removed, 150 μL of diluted virus solution was added to each well of the plate. 2 hours later, medium was aspirated and replaced with fresh medium containing 2% FCS and serially diluted CDV. Cells were incubated with 5% CO2 at 37° C. for 7 days after infection.
as §3, with “0.1 (OBP-401) or 10 (ONYX-015)” for “1 (OBP-301, OBP-202)”, “H1299.” for “H1299 and 5 in A549 (PFU/cell).”, “50” for “150”
(§4) 100 μL of PBS, 50 μL of XTT labeling reagent, and 1 μL of ion coupling reagent per well of plate were mixed.
Medium in each well of plate was removed, and 150 μL of mixture prepared above was added to each well. Plate was incubated with 5% CO2 at 37° C. for 4 hours, and then calculated absorbance at 450 nm and 690 nm. Protection was determined by the formula below: […]

[2] = test system: ONYX-015; experiment: XTT assay, protection from cytopathic effect of ONYX-015 in H1299 cells; type: cell-based, adenovirus; details: for Protection (%) Ave. / Protection (%): ONYX-015 MOI 10, H1299, 7 days; for Protection (%): single wells, dihydrate
Protocol: as §1, §2
as §3, with “0.1 (OBP-401) or 10 (ONYX-015)” for “1 (OBP-301, OBP-202)”, “H1299.” for “H1299 and 5 in A549 (PFU/cell).”, “50” for “150”
as §4
(§5) Medium in each well of plate was removed, and 150 μL of mixture prepared above was added to each well. Plate was incubated with 5% CO2 at 37° C. for 4 hours, and then calculated absorbance at 450 nm and 690 nm. Protection was determined by the formula below:
(§6) Protection(%)={OD(AdV(+):CDV(+))−OD(AdV(+):CDV(−))}/{OD(AdV(−):CDV(+))−OD(AdV(+):CDV(−))}×100.

[3] = test system: ONYX-015; experiment: Real-time quantitative PCR, viral E1A copy number, ONYX-015 in H1299 cells; type: cell-based, adenovirus; details: for E1A copy number, % (relative to 0 uM) / E1A copy number/ng DNA: ONYX-015 MOI 10, H1299, 24 hours
Protocol: Cells were seeded in 6-well plate (2 mL/well, 2×10^5 cells/well), and incubated with 5% CO2 at 37° C.
Viruses were diluted at a MOI of 10. Medium in each well was removed, 500 μL of diluted virus solution was added to each well of the plate. Plates were incubated with 5% CO2 at 37° C. for 2 hours with gently shaking every 15 minutes. Medium was aspirated, washed with PBS twice, and replaced with fresh medium containing 2% FCS and serially diluted CDV. Cells were incubated with 5% CO2 at 37° C. for 24 hours after infection.
Cells were detached with Trypsin-EDTA, and collected by centrifuging. Total DNA was extracted using QIAamp™ DNA Mini Kit according to manufacture's instructions with some modifications: addition of 20 μL of RNaseA in each sample when adding ProK. DNA was eluted by 50˜100 μL of D. W.
Concentration of DNA was determined by measuring O.D.260. Each DNA samples was diluted by D. W. at a concentration of 5 ng/μL.
Master-mix for E1A primer was prepared using LightCycler™ Faststart DNAMaster SYBR Green™ according to Table 1. Standard DNA was prepared by serially 10 times dilution of pCRII-E1A plasmid (1×10^9, 1×10^8, 1×10^7, 1×10^6, 1×10^5, 1×10^4, and 1×10^3 copies/μL). 2 μL of Sample or Standard DNA was and 18 μL of Master mix were added into capillaries (total volume was 20 μL per capillary).
Q-PCR was performed according to the program of Table 2 (LightCycler quicksystem 350S). Results obtained here were analyzed using LightCycler softwere.

[4] = test system: Telomelysin (OBP-301); experiment: XTT assay, protection from cytopathic effect of Telomelysin in A549 cells; type: cell-based, adenovirus; details: for Protection (%) Ave. / Protection (%): Telomelysin MOI 5, A549, 7 days; for Protection (%): single wells, dihydrate
Protocol: as §1, §2, §3, §4, §5, §6

Structure (SMILES): Nc1ccn(C[C@@H](CO)OCP(=O)(O)O)c(=O)n1.O.O [CDV, 1-[(S)-3-hydroxy-2-(phosphonomethoxy)propyl]cytosine dihydrate]
- CC50 at 7 days [1]: 146 µM
- Protection (%) Ave. ([2]; CDV 0.01 μM): −1.092%
- Protection (%) ([2]; CDV 0.01 μM): −1.284% and −1.233% and −0.822% and −1.027%
- Protection (%) Ave. ([2]; CDV 0.06 μM): −0.642%
- Protection (%) ([2]; CDV 0.06 μM): −0.616% and −0.205% and 0.051% and −1.798%
- Protection (%) Ave. ([2]; CDV 0.32 μM): 1.516%
- Protection (%) ([2]; CDV 0.32 μM): 3.237% and 4.675% and −0.205% and −1.644%
- Protection (%) Ave. ([2]; CDV 1.6 μM): 2.646%
- Protection (%) ([2]; CDV 1.6 μM): 4.315% and 1.849% and −1.079% and 5.497%
- Protection (%) Ave. ([2]; CDV 8 μM): 5.703%
- Protection (%) Ave. ([2]; CDV 40 μM): 55.420%
- Protection (%) ([2]; CDV 40 μM): 50.912% and 58.926% and 55.536% and 56.306%
- Protection (%) Ave. ([2]; CDV 200 μM): 11.264%
- Protection (%) ([2]; CDV 200 μM): 10.121% and 16.902% and 9.350% and 8.682%
- Protection (%) Ave. ([2]; CDV 1000 μM): −0.783%
- Protection (%) ([2]; CDV 1000 μM): −2.312% and −2.260% and −2.363% and 3.802%
- cytopathic effect induced by ONYX-015 ([2]; H1299 cells, FIG. 2A): apparently inhibited
- E1A copy number, % (relative to 0 uM) ([3]; CDV 0.16 uM): 86.98%
- E1A copy number/ng DNA ([3]; CDV 0.16 uM): 2.291E+07 copy number/ng DNA
- E1A copy number, % (relative to 0 uM) ([3]; CDV 0.8 uM): 91.04%
- E1A copy number/ng DNA ([3]; CDV 0.8 uM): 2.398E+07 copy number/ng DNA
- E1A copy number, % (relative to 0 uM) ([3]; CDV 4 uM): 83.71%
- E1A copy number/ng DNA ([3]; CDV 4 uM): 2.205E+07 copy number/ng DNA
- E1A copy number, % (relative to 0 uM) ([3]; CDV 20 uM): 45.10%
- E1A copy number/ng DNA ([3]; CDV 20 uM): 1.188E+07 copy number/ng DNA
- E1A copy number, % (relative to 0 uM) ([3]; CDV 100 uM): 11.20%
- E1A copy number/ng DNA ([3]; CDV 100 uM): 2.950E+06 copy number/ng DNA
- Viral E1A copy number ([3]; ONYX-015, H1299 cells, dose-dependent manner): reduced
- Telomelysin-mediated cytopathic effect ([4]; A549 cells, FIG. 1A): apparently inhibited
- Protection (%) Ave. ([4]; CDV 10 μM): 1.376%
- Protection (%) ([4]; CDV 10 μM): 1.991% and 0.387% and 1.136%
- Protection (%) Ave. ([4]; CDV 20 μM): 7.535%
- Protection (%) ([4]; CDV 20 μM): 7.548% and 4.342% and 7.388% and 10.862%
- Protection (%) Ave. ([4]; CDV 30 μM): 40.094%
- Protection (%) ([4]; CDV 30 μM): 41.269% and 33.413% and 44.208% and 41.483%
- Protection (%) Ave. ([4]; CDV 40 μM): 56.713%
- Protection (%) ([4]; CDV 40 μM): 61.951% and 52.118% and 53.881% and 58.904%
- Protection (%) Ave. ([4]; CDV 50 μM): 61.202%
- Protection (%) ([4]; CDV 50 μM): 69.539% and 54.148% and 62.592% and 58.530%
- Protection (%) Ave. ([4]; CDV 60 μM): 67.295%
- Protection (%) ([4]; CDV 60 μM): 68.310% and 63.768% and 66.440% and 70.661%
- Protection (%) Ave. ([4]; CDV 70 μM): 62.538%
- Protection (%) ([4]; CDV 70 μM): 66.226% and 58.424% and 61.844% and 63.661%
- Protection (%) Ave. ([4]; CDV 80 μM): 56.740%
- Protection (%) ([4]; CDV 80 μM): 54.790% and 51.637% and 59.279% and 61.256%
- Protection (%) Ave. ([4]; CDV 90 μM): 49.806%
- Protection (%) ([4]; CDV 90 μM): 51.423% and 50.514% and 50.942% and 46.346%
- Protection (%) Ave. ([4]; CDV 100 μM): 38.090%
- Protection (%) ([4]; CDV 100 μM): 33.948% and 41.590% and 36.834% and 39.987%
- EC50 ([4]; Telomelysin, A549 cells, XTT, read-out: EC50, CDV concentration that archive the protection to 50%): 35.9 µM
